Test results taken from US20240238269A1.
≈ marks a conversion by molar mass, not a printed value. Where two headings read alike, the source gives them in different places.

How the values were obtained:
[1] = test system: Herpes Simplex Virus 1; assay: Antiviral activity against Herpes Simplex Virus 1; type: cell-based
[2] = in vitro; details: African green monkey
[3] = test system: Dengue Virus 2; assay: Antiviral activity against Dengue Virus 2; type: cell-based
[4] = in vitro; details: human
[5] = test system: HPV6; assay: HPV6 transient transfection reporter plasmid replication assay; details: for EC50 / EC90: Alphapapillomavirus 10, C-33-A
[6] = test system: Human Coronavirus (β) OC43; assay: Antiviral activity against Human Coronavirus (β); type: cell-based
[7] = test system: Varicella-zoster Virus; assay: Antiviral activity against Varicella-zoster Virus; type: cell-based
[8] = test system: Herpes Simplex Virus 2; assay: Antiviral activity against Herpes Simplex Virus 2; type: cell-based
[9] = test system: Huh7; details: human
[10] = test system: HPV11; assay: microbe, parasite or virus in culture; details: human papillomavirus 11, C-33-A
[11] = test system: Chikungunya virus (CHIKV); assay: Antiviral activity against Chikungunya Virus; type: cell-based
[12] = test system: Human Coronavirus (α) 229E; assay: Antiviral activity against Human Coronavirus (α); type: cell-based
[13] = test system: other viruses; assay: Antiviral activity against other (non-HPV) viruses, overall conclusion; type: cell-based
[14] = test system: HPV16; details: Human Papillomavirus 16 KP212151.1, C-33 A
[15] = test system: Novel coronavirus (SARS-COV-2); assay: Antiviral activity against Novel Coronavirus; type: cell-based
[16] = test system: HPV18; assay: microbe, parasite or virus in culture; details: human papillomavirus 18, C-33-A
[17] = test system: Influenza A H1N1; assay: Antiviral activity against Influenza A H1N1; type: cell-based
[18] = in vitro; details: human; remark: listed apart in the source
[19] = test system: HPV16; assay: microbe, parasite or virus in culture; details: Human papillomavirus 16, C-33-A
[20] = test system: HPV11; details: Human Papillomavirus 11 HE611260.1, C-33 A
[21] = test system: Tacaribe Virus (TCRV); assay: microbe, parasite or virus in culture; type: cell-based
[22] = in vitro; details: dog
[23] = test system: HPV18; details: Human Papillomavirus 18 KC470230.1, C-33 A
[24] = test system: Rift Valley Fever Virus (RVFV); assay: microbe, parasite or virus in culture; type: cell-based
[25] = test system: human papillomavirus (HPV); assay: Antiviral activity against human papillomavirus (HPV), overall conclusion; type: cell-based
Procedure: When the SI50 value>10, the compound was determined to be active against the virus.

[26] = test system: Middle East Respiratory Syndrome Coronavirus (MERS-COV); assay: microbe, parasite or virus in culture; type: cell-based; details: Vero 76
[27] = in vitro; details: human; remark: listed apart in the source
[28] = Human Papillomavirus 6 FR751330.1, C-33 A
[29] = Human Papillomavirus 16 KP212151.1, C-33 A, 0.001-250 μM
[30] = Human Papillomavirus 16 KP212151.1, C-33 A, 0.048-150 μM
[31] = HPV16 strain KP212151.1, C-33 A, concentration range 0.001-250 μM

SMILES: O=[N+]([O-])c1ccc(O)c2ncccc12
- SI50 (CC50/EC50) [1]: <3.0
- EC50 ([1]; Human alphaherpesvirus 1): > 1200 nM
- CC50 [2]: < 0.1 µg/mL
- SI50 (CC50/EC50) [3]: 1.3
- EC50 ([3]; Dengue virus, Huh-7): 0.32 µg/mL (≈ 1.68 µM)
- CC50 [4]: 0.42 µg/mL (≈ 2.21 µM)
- EC50 [5]: 860 nM
- EC90 [5]: 5.41 µM
- SI50 (CC50/EC50) [5, 28]: 55
- SI90 [5, 28]: 9
- SI50 (CC50/EC50) [6]: 0
- EC50 ([6]; unidentified human coronavirus, OC43): > 0.37 µg/mL
- SI50 (CC50/EC50) [7]: <3
- EC50 ([7]; Human alphaherpesvirus 3): > 240 nM
- SI50 (CC50/EC50) [8]: <4
- EC50 ([8]; Human alphaherpesvirus 2): > 1200 nM
- CC50 [9]: 0.4 µg/mL (≈ 2.1 µM)
- EC50 [10]: 1040 nM
- EC90 [10]: 2.99 µM
- SI50 (CC50/EC50) [11]: 0
- EC50 ([11]; Chikungunya virus, Vero 76): > 0.86 µg/mL
- SI50 (CC50/EC50) [12]: 1.3
- EC50 ([12]; unidentified human coronavirus, Huh-7): 0.32 µg/mL (≈ 1.68 µM)
- inhibitory activity against other viruses [13]: not observed against other viruses
- SI50 (CC50/EC50) ([14]; 0.001-250 μM): 297
- SI90 ([14]; 0.001-250 μM): 143
- SI50 (CC50/EC50) ([14]; 0.048-150 μM): 23
- SI90 ([14]; 0.048-150 μM): 13
- SI50 (CC50/EC50) [15]: 3.1
- EC50 ([15]; Severe acute respiratory syndrome coronavirus 2, Vero 76): 0.32 µg/mL (≈ 1.68 µM)
- EC50 [16]: 1010 nM
- EC90 [16]: 3.99 µM
- SI50 (CC50/EC50) [17]: 3.8
- EC50 ([17]; Influenza A virus, H1N1, MDCK): 0.32 µg/mL (≈ 1.68 µM)
- CC50 [18]: 0.37 µg/mL (≈ 1.95 µM)
- EC50 [19, 29]: 260 nM
- EC90 [19, 29]: 540 nM
- EC50 [19, 30]: 2820 nM
- EC90 [19, 30]: 5110 nM
- SI50 (CC50/EC50) [20]: 53
- SI90 [20]: 19
- EC50 ([21]; Mammarenavirus tacaribeense, Vero): < 0.1 µg/mL
- SI50 (CC50/EC50) ([21]; Tacaribe Virus TRVL 11573, Vero): 1
- CC50 [22]: 1.2 µg/mL (≈ 6.31 µM)
- SI50 (CC50/EC50) [23]: 64
- SI90 [23]: 16
- SI50 (CC50/EC50) ([24]; Rift Valley Fever Virus MP-12, Vero 76): 1
- EC50 ([24]; Rift Valley fever virus, Vero 76): > 0.16 µg/mL
- antiviral activity compared with the positive control drug ([25]; HPV, Tables 1 and 2): better than that of the positive control drug
- inhibitory activity against HPV ([25]; active when SI50 value>10): specific inhibitory activity against HPV
- SI50 (CC50/EC50) ([26]; MERS Coronavirus EMC): 0
- EC50 ([26]; Middle East respiratory syndrome-related coronavirus): > 0.32 µg/mL
- CC50 at 48 h [27]: 55.5 µM

SMILES: Nc1nc2c(ncn2CCOCP(=O)(O)O)c(=O)[nH]1 [9-[2-(phosphonomethoxy)ethyl]guanine]
- EC50 [5]: 560 nM
- EC90 [5]: 6.35 µM
- EC50 [10]: 1030 nM
- EC90 [10]: 4.47 µM
- EC50 [16]: 630 nM
- EC90 [16]: > 150 µM
- EC50 [19, 31]: 280 nM
- EC90 [19, 31]: 2300 nM
